One assay concerns the target P-Selectin (Homo sapiens, UniProt P16109). Conditions: compared to NeuAcα2,3Galβ1,4(Fucα1,3)GlcNAcβ-O-Me (sialyl Lewis-x); cited from earlier work.
The target in another assay is L-Selectin (Homo sapiens, UniProt P14151). The following applies: compared to NeuAcα2,3Galβ1,4(Fucα1,3)GlcNAcβ-O-Me (sialyl Lewis-x); cited from earlier work.
For assay [1], the system named is α1,2-L-FT plus α1,4-L-FT of colon tumor CC9338. Kind of assay: α1,2-L-FT plus α1,4-L-FT assay, colon tumor extract. The assay is classed as biochemical, human. The following applies: 1 mg protein of the tissue extract. As to the method:
(§1) Colon tumor tissue (CC9338) and breast tumor tissue (BC9400) were obtained during surgical procedures at Roswell Park Cancer Institute and stored frozen within 1 h at −70° C. The tissues were homogenized at 4° C. with 4 volumes of 0.1M Tris Maleate […] 0.1% NaN3 using kinematica. After adjusting the concentration of Triton X-100 to 2%, these homogenates were mixed in the cold room for 1 h using Speci-Mix (Thermolyne) and then centrifuged at 20,000 g for 1 h at 4° C. The clear fat-free supernatant was stored frozen at −20° C. until use. Aliquots of 10 μL from this extract were used in assays run in duplicates. Glycosyltransferase activity in cell lysate was determined by mixing the lysates with acceptor and radiolabeled donor (monosaccharide) under the reaction conditions detailed below, followed by separation of un-reacted donor from the radioactive product using anionic or hydrophobic chromatography. In all cases, the radioactive content of isolated products was determined by using 3a70 scintillation cocktail (Research Products International, Mount Prospect, Ill.) and a Beckman LS6500 scintillation counter. Controls for each assay contained the reaction mixture with everything except the acceptor. All assays were run in duplicate. […]

The test system of assay [2] is α1,2-L-FT plus α1,4-L-FT of breast tumor BC9400. As to the kind of experiment: α1,2-L-FT plus α1,4-L-FT assay, breast tumor extract. The following applies: 1 mg protein of the tissue extract. The assay is classed as biochemical, human. The method, then: as §1
Another assay concerns LNCaP α2,3(O)ST. As to the kind of experiment: Sialyltransferase assay with LNCaP cell extract. The format is biochemical, human. The following applies: Table I; acceptor 7.5 mM; 100% = 30930 CPM (3-O-MeGalβ1,4GlcNAcβ1,6(Galβ1,3)GalNAcα-O-Bn). In short, it runs like this:
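LNCaP Triton X-100 extract (5 mg protein/ml; 0.1M Tris-maleate pH6.3) incubated with acceptor (typically 7.5 mM) and CMP-[9-3H]NeuAc (typically 0.2 μCi) in 0.1M Na cacodylate pH6.0, 2 h at 37 °C, in duplicate. Radioactive product separated on Dowex-1-formate, Sep-Pak C18 or Biogel P2 and counted by scintillation; blank without acceptor subtracted.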

Assay [3] addresses T1, Rat recombinant α2,3(O)ST (Rattus norvegicus, UniProt Q11205).
T1 construct: purchased Calbiochem
T1 sequence (Q11205 1-350): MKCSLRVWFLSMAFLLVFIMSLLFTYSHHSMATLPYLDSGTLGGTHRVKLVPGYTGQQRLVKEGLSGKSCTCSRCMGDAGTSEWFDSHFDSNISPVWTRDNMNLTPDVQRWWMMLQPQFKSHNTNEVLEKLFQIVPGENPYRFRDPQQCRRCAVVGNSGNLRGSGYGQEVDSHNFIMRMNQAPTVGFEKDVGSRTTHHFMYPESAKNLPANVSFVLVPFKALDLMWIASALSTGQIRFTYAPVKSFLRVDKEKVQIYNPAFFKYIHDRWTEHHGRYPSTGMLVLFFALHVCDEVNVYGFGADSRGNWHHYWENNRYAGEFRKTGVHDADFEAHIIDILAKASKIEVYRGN
Kind of assay: Sialyltransferase assay with cloned α2,3(O)ST. Conditions: Table I; acceptor 7.5 mM; 100% = 40560 CPM (3-O-MeGalβ1,4GlcNAcβ1,6(Galβ1,3)GalNAcα-O-Bn). The assay is classed as biochemical.

For assay [4], the system named is β-GlcNAc:β1,4GalNAc-T of colon tumor CC9338. Kind of assay: β-GlcNAc:β1,4GalNAc-T assay, colon tumor extract. The following applies: other acceptors, 1 mg protein of the tissue extract. The format is biochemical, human. The method, then: (§2) Colon tumor tissue (CC9338) and breast tumor tissue (BC9400) were obtained during surgical procedures at Roswell Park Cancer Institute and stored frozen within 1 h at −70° C. The tissues were homogenized at 4° C. with 4 volumes of 0.1M Tris Maleate […] 0.1% NaN3 using kinematica. After adjusting the concentration of Triton X-100 to 2%, these homogenates were mixed in the cold room for 1 h using Speci-Mix (Thermolyne) and then centrifuged at 20,000 g for 1 h at 4° C. The clear fat-free supernatant was stored frozen at −20° C. until use. Aliquots of 10 μL from this extract were used in assays run in duplicates. Glycosyltransferase activity in cell lysate was determined by mixing the lysates with acceptor and radiolabeled donor (monosaccharide) under the reaction conditions detailed below, followed by separation of un-reacted donor from the radioactive product using anionic or hydrophobic chromatography. In all cases, the radioactive content of isolated products was determined by using 3a70 scintillation cocktail (Research Products International, Mount Prospect, Ill.) and a Beckman LS6500 scintillation counter. Controls for each assay contained the reaction mixture with everything except the acceptor. All assays were run in duplicate.
(§3) The acceptors used for measuring the glycosyltransferase and sulfotransferase activities are given in Table I. The following are the conditions for individual enzymatic assays. Reaction temperature in all cases was 37° C. α2,3- and α2,6 sialytransferase (ST) assay reactions proceeded for 2 h in a mixture containing 100 mM sodium cacodylate buffer (pH 6.0), 7.5 mM acceptor, CMP-[9-^3H]NeuAc (typically 0.2 μCi) and 10 μl cell extract in a total volume of 20 μl [Chandrasekaran et al., 1995]. βGlcNAc:β1,4Gal-T and αGalNAc:β1,3Gal-T assay mixtures in duplicate contained 0.1M Hepes-NaOH pH 7.0, 7 mM ATP, 20 mM Mn acetate, 1 mM UDP-Gal, UDP [^14C]Gal (0.05 μCi; 327mCi/mmol; Amersham), 0.5 mM acceptor (unless otherwise stated) and the enzyme in a total volume of 20 μL. It was incubated for 4 h [Chandrasekaran et al., 2001]. βGlcNAc:β1,4GalNAc-T assay mixtures in duplicate contained 0.1M Hepes-NaOH pH 7.0, 7 mM ATP, 20 mM Mn acetate. UDP [^3H] GalNAc (0.20 μCi; 7.8 Ci/mmol: New England Nuclear Corp.) 7.5 mM acceptor (unless otherwise stated) and the enzyme in a total volume of 20 μL and incubated for 4 h [Chandrasekaran et al., 2001].
(§4) Dowex-1-C1 or Sep-Pak C18 cartridges were used to isolate radiolabeled product from the reaction mixture. For GalT, GalNAc-T and FT assays, the incubation mixture was diluted with 1 ml water and passed through a 1 ml Dowex-1-C1 column [Chandrasekaran et al., 1996; Chandrasekaran et al., 2001]. The column was washed twice with 1 ml of water. The breakthrough and the water wash contained the [^14C]-galactosylated or [^14C]-fucosylated products formed with neutral acceptors. 3 ml of 0.1M NaCl was used to obtain [^14C]-fucosylated products from sialylated acceptors after water elution. For sialytransferase assays, the radioactive products from benzylglycosides were separated by hydrophobic chromatography on Sep-Pak C18 cartridge (Waters, Milford, Mass.), and elution of the product was done with 3 ml methanol [Palcic et al., 1988]. For sulfotransferase assays, elution of the [^35S]-sulfated compound from Dowex-1-C1 column was achieved by 3 ml of 0.2M NaCl [Chandrasekaran et al., 2004].

Assay [5] addresses T2, FTVI of breast tumor BC9400 (Homo sapiens, UniProt P51993).
T2 construct: from tissue; host or cells: breast tumor tissue BC9400, Triton X-100 extract
Kind of assay: FTVI assay, breast tumor extract. The assay is classed as biochemical. Conditions: 1 mg protein of the tissue extract. As to the method: as §1

Assay [6] concerns β-GlcNAc:β1,4Gal-T of breast tumor BC9400. Kind of assay: β-GlcNAc:β1,4Gal-T assay, breast tumor extract. Conditions: other acceptors, 1 mg protein of the tissue extract. The format is biochemical, human. The method, then: as §2, §3, §4
The target of assay [7] is T3, FTVI of colon tumor CC9338 (Homo sapiens, UniProt P51993).
T3 construct: from tissue; host or cells: colon tumor tissue CC9338, Triton X-100 extract
T3 sequence (P51993 whole entry): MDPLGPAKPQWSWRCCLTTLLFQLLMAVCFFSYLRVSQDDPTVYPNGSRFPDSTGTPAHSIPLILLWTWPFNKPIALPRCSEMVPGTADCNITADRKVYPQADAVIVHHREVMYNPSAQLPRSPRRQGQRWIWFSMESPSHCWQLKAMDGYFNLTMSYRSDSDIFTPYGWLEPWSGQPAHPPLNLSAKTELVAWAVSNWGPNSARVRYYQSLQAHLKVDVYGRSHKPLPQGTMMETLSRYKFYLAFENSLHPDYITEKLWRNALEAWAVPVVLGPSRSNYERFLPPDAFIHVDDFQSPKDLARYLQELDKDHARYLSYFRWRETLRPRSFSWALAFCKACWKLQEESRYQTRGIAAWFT
As to the kind of experiment: FTVI assay, colon tumor extract. The format is biochemical. The following applies: 1 mg protein of the tissue extract. As to the method: as §1

In assay [8] the test system is β-GlcNAc:β1,4Gal-T of colon tumor CC9338. As to the kind of experiment: β-GlcNAc:β1,4Gal-T assay, colon tumor extract. The assay is classed as biochemical, human. Conditions: other acceptors, 1 mg protein of the tissue extract. As to the method: as §2, §3, §4
In assay [9] the test system is β-GlcNAc:β1,4GalNAc-T of breast tumor BC9400. Kind of assay: β-GlcNAc:β1,4GalNAc-T assay, breast tumor extract. The assay is classed as biochemical, human. Conditions: other acceptors, 1 mg protein of the tissue extract. As to the method: as §2, §3, §4
A further assay has as its target T4, human FTVII (Homo sapiens, UniProt Q11130).
T4 construct: expressed in transfected cells; host or cells: COS-7
Kind of assay: [14C]Fuc transfer by FTVII from extracts of transfected COS-7 cells. The format is biochemical. The following applies: extracts of COS-7 cells transfected with FTVII cDNA; unpublished results. From the text:
The sialylation steps in this reaction scheme were validated by analyzing reaction products using mass spectroscopy (Table VI).

Chain of P-Selectin (P16109 42-830, species assumed): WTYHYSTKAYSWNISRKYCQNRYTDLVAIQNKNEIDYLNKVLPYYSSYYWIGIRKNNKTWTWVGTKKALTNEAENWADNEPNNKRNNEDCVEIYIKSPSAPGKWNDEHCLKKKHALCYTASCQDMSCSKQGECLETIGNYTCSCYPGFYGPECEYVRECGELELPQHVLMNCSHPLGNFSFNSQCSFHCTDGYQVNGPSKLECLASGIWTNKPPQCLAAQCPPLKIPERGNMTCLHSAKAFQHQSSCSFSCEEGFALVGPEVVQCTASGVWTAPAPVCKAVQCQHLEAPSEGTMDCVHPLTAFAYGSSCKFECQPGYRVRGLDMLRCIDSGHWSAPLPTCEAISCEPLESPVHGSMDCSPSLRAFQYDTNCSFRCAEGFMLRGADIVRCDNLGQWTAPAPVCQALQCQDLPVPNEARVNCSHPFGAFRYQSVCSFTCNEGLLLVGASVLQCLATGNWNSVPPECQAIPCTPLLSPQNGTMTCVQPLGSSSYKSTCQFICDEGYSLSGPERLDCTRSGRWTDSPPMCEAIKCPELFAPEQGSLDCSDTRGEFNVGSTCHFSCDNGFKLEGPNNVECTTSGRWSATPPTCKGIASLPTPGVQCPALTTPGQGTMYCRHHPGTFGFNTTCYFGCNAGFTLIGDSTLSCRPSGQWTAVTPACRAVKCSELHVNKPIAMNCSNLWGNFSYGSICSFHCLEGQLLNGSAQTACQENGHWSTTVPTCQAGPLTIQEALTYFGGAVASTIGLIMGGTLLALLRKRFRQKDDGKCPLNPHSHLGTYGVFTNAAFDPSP
T4 sequence (Q11130 whole entry): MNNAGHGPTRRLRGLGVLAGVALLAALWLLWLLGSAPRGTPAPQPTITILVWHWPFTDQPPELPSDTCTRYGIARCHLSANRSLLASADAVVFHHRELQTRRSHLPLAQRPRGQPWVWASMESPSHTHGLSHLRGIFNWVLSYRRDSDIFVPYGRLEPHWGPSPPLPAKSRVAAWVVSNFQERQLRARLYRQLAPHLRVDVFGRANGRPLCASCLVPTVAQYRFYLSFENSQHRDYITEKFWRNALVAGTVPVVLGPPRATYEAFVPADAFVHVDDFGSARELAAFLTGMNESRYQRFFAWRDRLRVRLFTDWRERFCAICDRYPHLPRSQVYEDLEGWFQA
T2 sequence (P51993 whole entry): as the sequence (P51993 whole entry) above
Chain of L-Selectin (P14151 39-372, species assumed): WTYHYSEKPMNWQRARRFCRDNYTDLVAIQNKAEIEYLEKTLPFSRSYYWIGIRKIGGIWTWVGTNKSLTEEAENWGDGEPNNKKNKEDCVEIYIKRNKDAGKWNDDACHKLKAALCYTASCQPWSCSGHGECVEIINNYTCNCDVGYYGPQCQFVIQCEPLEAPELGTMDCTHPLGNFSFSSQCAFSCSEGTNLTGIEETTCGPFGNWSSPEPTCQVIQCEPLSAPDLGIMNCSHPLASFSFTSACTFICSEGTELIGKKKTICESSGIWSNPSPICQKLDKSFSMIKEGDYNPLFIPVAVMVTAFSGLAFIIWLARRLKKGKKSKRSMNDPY

Take `COC1OC(COC2OC(CO)C(OC3OC(CO)C(O)C(O)C3NC(C)=O)C(OC3OC(C)C(O)C(O)C3O)C2NC(C)=O)C(O)C(OC2OC(CO)C(O)C(OC3(C(=O)O)CC(O)C(NC(C)=O)C(C(O)C(O)CO)O3)C2O)C1NC(C)=O` (stereo not shown) [GalNAcβ1,4(Fucα1,3)GlcNAcβ1,6(NeuAcα2,3Galβ1,3) GalNAcα-O-Me]: at P-Selectin, the “fold better inhibitor of P-Selectin binding” value is 5-6 fold. Besides, the “fold better inhibitor of L-Selectin binding” value on L-Selectin is 5-6 fold.
With `CO[C@@H]1O[C@H](CO)[C@H](O)[C@H](O[C@@H]2O[C@H](CO)[C@@H](O)[C@H](O[C@@H]3O[C@H](CO)[C@H](O)[C@H](O)[C@H]3O)[C@H]2NC(C)=O)[C@H]1O` [Galβ1,3GlcNAcβ1,3Galβ-O-Me], the “α1,2-L-FT plus α1,4-L-FT activity: incorporation of radioactive sugar” value turned out to be 578.9 CPM × 10^−3 in [1] and 16.8 CPM × 10^−3 in assay [2]. Besides, the “Sialyltransferase activity (%) LNCaP α2,3(O)ST” value with LNCaP α2,3(O)ST stood at 1.4%. For the same compound, in assay [3], the “Sialyltransferase activity (%) Cloned α2,3(O)ST” value was 37.2%.
Turning to `CC(=O)N[C@H]1[C@H](OCc2ccccc2)O[C@H](CO)[C@@H](O[C@@H]2O[C@H](CO)[C@@H](O)[C@H](O)[C@H]2NC(C)=O)[C@@H]1O` [GlcNAcβ1,4GlcNAcβ-O-Bn], the “b) β-GlcNAc:β1,4GalNAc-T activity: incorporation of radioactive sugar” value in assay [4] worked out at 18.9 CPM × 10^−3; in assay [9], 57.8 CPM × 10^−3. Besides, the entries for the “FTVI activity: incorporation of radioactive sugar” value in assay [5] and in [7] were 0.3 CPM × 10^−3 and 139.1 CPM × 10^−3, respectively. Besides, the “a) β-GlcNAc:β1,4Gal-T activity: incorporation of radioactive sugar” value in assay [6] is on record as 436.7 CPM × 10^−3; in assay [8], 307.6 CPM × 10^−3.
In the case of `CO[C@@H]1O[C@H](COS(=O)(=O)O)[C@@H](O[C@@H]2O[C@H](CO)[C@H](O)[C@H](O[C@@H]3O[C@H](COS(=O)(=O)O)[C@@H](O[C@@H]4O[C@H](CO)[C@H](O)[C@H](O[C@]5(C(=O)O)C[C@H](O)[C@@H](NC(C)=O)[C@H]([C@H](O)[C@H](O)CO)O5)[C@H]4O)[C@H](O)[C@H]3NC(C)=O)[C@H]2O)[C@H](O)[C@H]1NC(C)=O` [NeuAcα2,3Galβ1,4(6-O-Sulfo)GlcNAcβ1,3Galβ1,4(6-O-Sulfo)GlcNAcβ-O-Me], at human FTVII, the “transfer of [14C]Fuc to the acceptor” value is reported as “efficiently transferring”.
